Here are results for 8 compounds from PubChem BioAssay (NCI).

Each structure is given as a SMILES string.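 1) Cells in 96-well plates. 2) Compound, 48 h, 5 concentrations. 3) Linear interpolation between surrounding doses. 4) Unreached endpoint = highest concentration. The concentration for full growth arrest is given as TGI.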

Among the test systems are OVCAR-4 ovarian; OVCAR-3 ovarian; SW-620 colon; LOX IMVI melanoma; A498 renal; M14 melanoma; HOP-92 NSCLC; UACC-257 melanoma; SNB-75 CNS; MCF7 breast; SF-539 CNS; HS 578T breast; SK-OV-3 ovarian; HT29 colon; HL-60(TB) leukemia; A549 NSCLC; KM12 colon; HCC-2998 colon.
Assay in all cases: NCI tumour cell line growth inhibition, 48 h

For `O=C1CC2SC(COCc3ccccc3)(CCN2Cc2ccccc2)C1` (stereo not drawn), the TGI in the experiment with OVCAR-4 ovarian, with OVCAR-3 ovarian, with SW-620 colon, in the experiment on LOX IMVI melanoma, with A498 renal and with M14 melanoma was > 100 µM each time. Moreover, the TGI in the experiment on HOP-92 NSCLC is > 100 µM; in the experiment with UACC-257 melanoma it was > 100 µM; in the experiment with SNB-75 CNS, > 100 µM; in the experiment on MCF7 breast, 81.9 µM; in the experiment on SF-539 CNS, > 100 µM; with HS 578T breast, > 100 µM. Also, the TGI was > 100 µM with SK-OV-3 ovarian; > 100 µM with HT29 colon; 43 µM with HL-60(TB) leukemia; > 100 µM in the experiment with A549 NSCLC; > 100 µM with KM12 colon; > 100 µM in the experiment on HCC-2998 colon.
As for `CC(O)[C@@]1(c2ccccc2)CC2(CCN(C)CC2)O[C@H]1C` (stereo partly drawn), the TGI in the experiment on OVCAR-4 ovarian, with OVCAR-3 ovarian, with SW-620 colon, with LOX IMVI melanoma, with A498 renal and with M14 melanoma was > 100 µM each time. Further, the TGI in the experiment on HOP-92 NSCLC, in the experiment with UACC-257 melanoma, in the experiment with SNB-75 CNS, in the experiment on MCF7 breast, in the experiment on SF-539 CNS and in the experiment with HS 578T breast was > 100 µM in each case. Besides, the TGI in the experiment on SK-OV-3 ovarian is > 100 µM; with HT29 colon, > 100 µM; in the experiment with HL-60(TB) leukemia, 95 µM; in the experiment with A549 NSCLC it was > 100 µM; with KM12 colon it was > 100 µM; in the experiment with HCC-2998 colon it was > 100 µM.
As to `C/C(Cc1ccc2c(c1)OCO2)=N\NC(=O)C(C)Sc1nnc(SC(C)C(=O)N/N=C(\C)Cc2ccc3c(c2)OCO3)s1` (stereo not drawn), the TGI in the experiment on OVCAR-4 ovarian, in the experiment on OVCAR-3 ovarian, with SW-620 colon, in the experiment on LOX IMVI melanoma, with A498 renal and in the experiment with M14 melanoma was > 100 µM throughout. For the same compound, the TGI with HOP-92 NSCLC, with UACC-257 melanoma, in the experiment with SNB-75 CNS, with MCF7 breast, with HS 578T breast and in the experiment with SK-OV-3 ovarian was > 100 µM throughout. The TGI with HT29 colon, with HL-60(TB) leukemia, with A549 NSCLC, in the experiment with KM12 colon and in the experiment on HCC-2998 colon was > 100 µM each time.
As for `CC(=O)OCC1OC(n2nc(Cc3ccccc3)c(=S)[nH]c2=S)C(OC(C)=O)C(OC(C)=O)C1OC(C)=O` (stereo not drawn), the TGI is 39.6 µM with OVCAR-4 ovarian; 41.2 µM in the experiment on OVCAR-3 ovarian; > 100 µM with SW-620 colon; 41.9 µM with LOX IMVI melanoma; > 100 µM in the experiment with A498 renal; 38.1 µM with M14 melanoma. Moreover, the TGI stood at 40.6 µM with HOP-92 NSCLC; 37.8 µM in the experiment on UACC-257 melanoma; 39.8 µM in the experiment with SNB-75 CNS; 72.7 µM in the experiment on MCF7 breast; 67.8 µM with SF-539 CNS; 45.4 µM in the experiment on HS 578T breast. Further, the TGI is > 100 µM in the experiment with SK-OV-3 ovarian; > 100 µM in the experiment with HT29 colon; 27.2 µM in the experiment with HL-60(TB) leukemia; > 100 µM with A549 NSCLC; 40.2 µM with KM12 colon.
As to `Nc1nc(=S)n(-c2ccc(Cl)cc2)c2nc3ccccc3cc12`, the TGI in the experiment with OVCAR-4 ovarian, in the experiment on OVCAR-3 ovarian, with SW-620 colon, with LOX IMVI melanoma, in the experiment with A498 renal and with M14 melanoma was > 100 µM each time. The TGI in the experiment on HOP-92 NSCLC is 83.7 µM; with UACC-257 melanoma, > 100 µM; with SNB-75 CNS, 97 µM; in the experiment with MCF7 breast, > 100 µM; in the experiment on HS 578T breast, > 100 µM; in the experiment with SK-OV-3 ovarian, > 100 µM. Further, the TGI in the experiment on HT29 colon, in the experiment with HL-60(TB) leukemia, in the experiment with A549 NSCLC, in the experiment on KM12 colon and with HCC-2998 colon was > 100 µM in each case.
For the compound `O=C1c2ccccc2C(=O)c2c(NCCCN3CCOCC3)ccc(NCCCN3CCOCC3)c21`, the TGI in the experiment with OVCAR-4 ovarian is > 100 µM; with OVCAR-3 ovarian, 40.3 µM; in the experiment on SW-620 colon it was 28.1 µM; with LOX IMVI melanoma, 3.61 µM; in the experiment on A498 renal it was 25.2 µM; in the experiment on M14 melanoma it was 10.1 µM. The TGI with HOP-92 NSCLC amounted to 15.9 µM; in the experiment on UACC-257 melanoma it was 9.91 µM; in the experiment with SNB-75 CNS, 10.7 µM; in the experiment on MCF7 breast it was 24.4 µM; with SF-539 CNS, 4.03 µM; in the experiment on HS 578T breast, 28.5 µM. For the same compound, the TGI in the experiment on HT29 colon was 12.7 µM; with HL-60(TB) leukemia it was > 100 µM; with A549 NSCLC, 16.2 µM; in the experiment on KM12 colon, 20.5 µM; with HCC-2998 colon, 27 µM.
On to `COc1cc2c[n+](C)c3c(c2cc1OC)Cc1cc2c(cc1-3)OCO2`, for which the TGI in the experiment with OVCAR-4 ovarian, with OVCAR-3 ovarian, in the experiment on SW-620 colon, with LOX IMVI melanoma, in the experiment with A498 renal and with M14 melanoma was > 100 µM each time. The TGI in the experiment on HOP-92 NSCLC, with UACC-257 melanoma, in the experiment on SNB-75 CNS, with MCF7 breast, in the experiment with SF-539 CNS and in the experiment with HS 578T breast was > 100 µM in each case. The TGI in the experiment with SK-OV-3 ovarian, in the experiment on HT29 colon, in the experiment on HL-60(TB) leukemia, with A549 NSCLC and in the experiment on KM12 colon was > 100 µM throughout.
As for `C1CN2CCNCCN(CCN1)CC2`, the TGI in the experiment on OVCAR-4 ovarian, with OVCAR-3 ovarian, in the experiment on SW-620 colon, with LOX IMVI melanoma, in the experiment on A498 renal and in the experiment with M14 melanoma was > 100 µM each time. Also, the TGI in the experiment on HOP-92 NSCLC, in the experiment on UACC-257 melanoma, with SNB-75 CNS, in the experiment on MCF7 breast, in the experiment with SF-539 CNS and in the experiment with HS 578T breast was > 100 µM in each case. In addition, the TGI in the experiment on SK-OV-3 ovarian, with HT29 colon, in the experiment with HL-60(TB) leukemia, in the experiment with A549 NSCLC and with KM12 colon was > 100 µM throughout.
